Experimental data as given in patent publication US12486269B2 (Aconcagua Bio, Inc., priority 2024, dated 2025).

How the values were obtained:
[1] = molecular target: T1, COS-7/AMY3 (human calcitonin receptor (CTR) and RAMP3) (Homo sapiens, UniProt O60896+P30988); assay: Amylin Receptor cAMP Assay II; format: cell-based; conditions: values marked **: Amylin Receptor cAMP Assay II; COS-7/AMY3 cells, cAMP dynamic 2 kit, 30 min; read-out: Amylin Receptor cAMP Stimulation Activity: EC50
T1 construct: expressed in transfected cells; host or cells: COS-7
T1 sequence (O60896 24-148, one chain of several): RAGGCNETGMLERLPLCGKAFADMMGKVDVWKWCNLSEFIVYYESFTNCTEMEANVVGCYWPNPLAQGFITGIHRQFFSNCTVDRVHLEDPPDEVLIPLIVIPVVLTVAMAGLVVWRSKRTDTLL
Procedure, shortened: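 COS-7 cells stably co-expressing human CTR and RAMP3 (AMY3), 2000 cells/well in HBSS with 20 mM HEPES, 0.5 mM IBMX, 0.1% casein, stimulated with compound for 30 min at 37 °C. cAMP measured by HTRF (665/615 nm), activity normalized between vehicle and maximal control.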

[2] = molecular target: T2, human calcitonin receptor (CTR) (Homo sapiens, UniProt P30988); assay: Calcitonin Receptor (CTR) cAMP Assay; format: cell-based; conditions: COS7-human CTR Clone #2 stable cell line, cAMP dynamic 2 kit, 30 min; read-out: Calcitonin Receptor cAMP Stimulation Activity: EC50
T2 construct: expressed in transfected cells; host or cells: COS-7 (COS7-human CTR Clone #2)
T2 sequence (P30988 25-474): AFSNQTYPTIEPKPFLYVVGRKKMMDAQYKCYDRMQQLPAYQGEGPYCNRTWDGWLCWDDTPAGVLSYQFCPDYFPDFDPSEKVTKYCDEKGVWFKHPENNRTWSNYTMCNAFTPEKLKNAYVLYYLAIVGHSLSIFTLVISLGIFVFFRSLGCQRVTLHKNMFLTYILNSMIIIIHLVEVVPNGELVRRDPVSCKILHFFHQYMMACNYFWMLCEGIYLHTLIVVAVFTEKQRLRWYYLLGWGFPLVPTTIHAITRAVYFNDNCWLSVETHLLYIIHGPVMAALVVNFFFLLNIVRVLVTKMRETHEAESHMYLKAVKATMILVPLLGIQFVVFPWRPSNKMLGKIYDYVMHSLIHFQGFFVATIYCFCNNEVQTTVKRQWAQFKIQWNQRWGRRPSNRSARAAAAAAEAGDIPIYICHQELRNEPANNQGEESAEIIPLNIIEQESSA
Procedure, shortened: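 COS-7 cells stably expressing human CTR (2000 cells/well) were incubated 30 min at 37 °C with 4-fold serially diluted compound in HBSS/20 mM HEPES/0.5 mM IBMX/0.1% casein. cAMP was detected by HTRF (665/615 nm) after 1 h at RT. % activity was normalised to vehicle and positive controls.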

Row | SMILES | EC50 [1] [nM] | EC50 [2] [nM]
1 | COc1nccc2c1CC[C@H]2Nc1nccc2cc(-c3c4c(nc(CCc5ccc(F)cc5)c3-c3n[nH]c(=O)o3)C35CC(CN3C4=O)C5)sc12 [Compound 264, (R)-5-(2-(4-fluorophenethyl)-4-(7-((1-methoxy-6,7-dihydro-5H-cyclopenta[c]pyridin-5-yl)amino)thieno[2,3-c]pyridin-2-yl)-5-oxo-8,9-dihydro-5H,7H-8,9a-methanopyrido[2,3-a]pyrrolizin-3-yl)-1,3,4-oxadiazol-2(3H)-one] | 7.4 | 0.247
2 | Cc1cc2cc(-c3c4c(nc(CCc5ccc(F)cc5)c3-c3n[nH]c(=O)o3)C35CC(CN3C4=O)C5)sc2c(N[C@@H]2CCc3c(Cl)cncc32)n1 [Compound 265, (R)-5-(4-(7-((4-chloro-6,7-dihydro-5H-cyclopenta[c]pyridin-7-yl)amino)-5-methylthieno[2,3-c]pyridin-2-yl)-2-(4-fluorophenethyl)-5-oxo-8,9-dihydro-5H,7H-8,9a-methanopyrido[2,3-a]pyrrolizin-3-yl)-1,3,4-oxadiazol-2(3H)-one] | 7.34 | 0.174
3 | O=C1c2c(nc(CCc3ccc(F)cc3)c(-c3n[nH]c(=O)o3)c2-c2cc3ccnc(N[C@@H]4CCc5cc(Cl)cnc54)c3s2)C23CC(CN12)C3 [Compound 266, (R)-5-(4-(7-((3-chloro-6,7-dihydro-5H-cyclopenta[b]pyridin-7-yl)amino)thieno[2,3-c]pyridin-2-yl)-2-(4-fluorophenethyl)-5-oxo-8,9-dihydro-5H,7H-8,9a-methanopyrido[2,3-a]pyrrolizin-3-yl)-1,3,4-oxadiazol-2(3H)-one] | 182 | 2.75
4 | COc1c(F)ccc2c1CC[C@H]2Nc1cccc2nc(-c3c4c(nc(CCc5ccc(F)cc5)c3-c3n[nH]c(=O)o3)C35CC(CN3C4=O)C5)sc12 [Compound 267, (R)-5-(4-(7-((5-fluoro-4-methoxy-2,3-dihydro-1H-inden-1-yl)amino)benzo[d]thiazol-2-yl)-2-(4-fluorophenethyl)-5-oxo-8,9-dihydro-5H,7H-8,9a-methanopyrido[2,3-a]pyrrolizin-3-yl)-1,3,4-oxadiazol-2(3H)-one] | 14.6 | 0.738
5 | COc1c(F)ccc2c1CC[C@H]2Nc1ncnc2cc(-c3c4c(nc(CCc5ccc(F)cc5)c3-c3n[nH]c(=O)o3)C35CC(CN3C4=O)C5)sc12 [Compound 268, (R)-5-(4-(4-((5-fluoro-4-methoxy-2,3-dihydro-1H-inden-1-yl)amino)thieno[3,2-d]pyrimidin-6-yl)-2-(4-fluorophenethyl)-5-oxo-8,9-dihydro-5H,7H-8,9a-methanopyrido[2,3-a]pyrrolizin-3-yl)-1,3,4-oxadiazol-2(3H)-one] | 1.07 | 0.077
6 | COc1c(F)ccc2c1CC[C@H]2Nc1nccc2sc(-c3c4c(nc(CCc5ccc(F)cc5)c3-c3n[nH]c(=O)o3)C35CC(CN3C4=O)C5)cc12 [Compound 269, (R)-5-(4-(4-((5-fluoro-4-methoxy-2,3-dihydro-1H-inden-1-yl)amino)thieno[3,2-c]pyridin-2-yl)-2-(4-fluorophenethyl)-5-oxo-8,9-dihydro-5H,7H-8,9a-methanopyrido[2,3-a]pyrrolizin-3-yl)-1,3,4-oxadiazol-2(3H)-one] | 1.78 | 0.0975
7 | COc1c(F)ccc2c1CC[C@H]2Nc1ncnc2sc(-c3c4c(nc(CCc5ccc(F)cc5)c3-c3n[nH]c(=O)o3)C35CC(CN3C4=O)C5)cc12 [Compound 270, (R)-5-(4-(4-((5-fluoro-4-methoxy-2,3-dihydro-1H-inden-1-yl)amino)thieno[2,3-d]pyrimidin-6-yl)-2-(4-fluorophenethyl)-5-oxo-8,9-dihydro-5H,7H-8,9a-methanopyrido[2,3-a]pyrrolizin-3-yl)-1,3,4-oxadiazol-2(3H)-one] | 1.6 | 0.148
8 | COc1c(F)ccc2c1CC[C@H]2Nc1ccnc2cc(-c3c4c(nc(CCc5ccc(F)cc5)c3-c3n[nH]c(=O)o3)C35CC(CN3C4=O)C5)sc12 [Compound 271, (R)-5-(4-(7-((5-fluoro-4-methoxy-2,3-dihydro-1H-inden-1-yl)amino)thieno[3,2-b]pyridin-2-yl)-2-(4-fluorophenethyl)-5-oxo-8,9-dihydro-5H,7H-8,9a-methanopyrido[2,3-a]pyrrolizin-3-yl)-1,3,4-oxadiazol-2(3H)-one] | 3.13 | 0.178
9 | O=C1c2c(nc(CCc3ccc(F)cc3)c(-c3n[nH]c(=O)o3)c2-c2cc3ccnc(N[C@@H]4CCc5c(F)cccc54)c3s2)C23CC(CN12)C3 [Compound 272, (R)-5-(4-(7-((4-fluoro-2,3-dihydro-1H-inden-1-yl)amino)thieno[2,3-c]pyridin-2-yl)-2-(4-fluorophenethyl)-5-oxo-8,9-dihydro-5H,7H-8,9a-methanopyrido[2,3-a]pyrrolizin-3-yl)-1,3,4-oxadiazol-2(3H)-one] | 1.45 | 0.0666
10 | O=C1c2c(nc(CCc3ccc(F)cc3)c(-c3n[nH]c(=O)o3)c2-c2cc3ccnc(N[C@@H]4CCc5cc(Cl)ccc54)c3s2)C23CC(CN12)C3 [Compound 273, (R)-5-(4-(7-((5-chloro-2,3-dihydro-1H-inden-1-yl)amino)thieno[2,3-c]pyridin-2-yl)-2-(4-fluorophenethyl)-5-oxo-8,9-dihydro-5H,7H-8,9a-methanopyrido[2,3-a]pyrrolizin-3-yl)-1,3,4-oxadiazol-2(3H)-one] | 1.79 | 0.165
11 | O=C1c2c(nc(CCc3ccc(F)cc3)c(-c3n[nH]c(=O)o3)c2-c2cc3ccnc(N[C@@H]4CCc5ccc(Cl)cc54)c3s2)C23CC(CN12)C3 [Compound 274, (R)-5-(4-(7-((6-chloro-2,3-dihydro-1H-inden-1-yl)amino)thieno[2,3-c]pyridin-2-yl)-2-(4-fluorophenethyl)-5-oxo-8,9-dihydro-5H,7H-8,9a-methanopyrido[2,3-a]pyrrolizin-3-yl)-1,3,4-oxadiazol-2(3H)-one] | 4.54 | 0.255
12 | COc1c(F)ccc2c1CC[C@H]2Nc1nccc2cc(-c3c4c(nc(CCc5cccc(F)c5)c3-c3n[nH]c(=O)o3)C35CC(CN3C4=O)C5)sc12 [Compound 275, (R)-5-(4-(7-((5-fluoro-4-methoxy-2,3-dihydro-1H-inden-1-yl)amino)thieno[2,3-c]pyridin-2-yl)-2-(3-fluorophenethyl)-5-oxo-8,9-dihydro-5H,7H-8,9a-methanopyrido[2,3-a]pyrrolizin-3-yl)-1,3,4-oxadiazol-2(3H)-one] | 0.394 | 0.0262
13 | COc1c(F)ccc2c1CC[C@H]2Nc1nccc2cc(-c3c4c(nc(CCc5ccccc5F)c3-c3n[nH]c(=O)o3)C35CC(CN3C4=O)C5)sc12 [Compound 276, (R)-5-(4-(7-((5-fluoro-4-methoxy-2,3-dihydro-1H-inden-1-yl)amino)thieno[2,3-c]pyridin-2-yl)-2-(2-fluorophenethyl)-5-oxo-8,9-dihydro-5H,7H-8,9a-methanopyrido[2,3-a]pyrrolizin-3-yl)-1,3,4-oxadiazol-2(3H)-one] | 1.57 | 0.0602
14 | COc1c(F)ccc2c1CC[C@H]2Nc1nccc2cc(-c3c4c(nc(CCc5cccc(Cl)c5)c3-c3n[nH]c(=O)o3)C35CC(CN3C4=O)C5)sc12 [Compound 277, (R)-5-(2-(3-chlorophenethyl)-4-(7-((5-fluoro-4-methoxy-2,3-dihydro-1H-inden-1-yl)amino)thieno[2,3-c]pyridin-2-yl)-5-oxo-8,9-dihydro-5H,7H-8,9a-methanopyrido[2,3-a]pyrrolizin-3-yl)-1,3,4-oxadiazol-2(3H)-one] | 0.368 | 0.0207
